Experimental data reported in paper PMC5519534, “AM-37 and ST-36 Are Small Molecule Bombesin Receptor Antagonists” (Frontiers in Endocrinology, 2017).
Marks after values point to notes of the source that are not given here.

What was measured:
[1] = target: T1, BRS-3 (Homo sapiens, UniProt P32247); assay: Inhibition of specific 125I-BA1 binding to BRS-3-transfected NCI-H1299 cells; settings: for Ki: inhibition of specific 125I-BA1 binding, BRS-3-transfected NCI-H1299 cells
T1 construct: expressed in transfected cells; host or cells: NCI-H1299
T1 sequence (P32247 1-399): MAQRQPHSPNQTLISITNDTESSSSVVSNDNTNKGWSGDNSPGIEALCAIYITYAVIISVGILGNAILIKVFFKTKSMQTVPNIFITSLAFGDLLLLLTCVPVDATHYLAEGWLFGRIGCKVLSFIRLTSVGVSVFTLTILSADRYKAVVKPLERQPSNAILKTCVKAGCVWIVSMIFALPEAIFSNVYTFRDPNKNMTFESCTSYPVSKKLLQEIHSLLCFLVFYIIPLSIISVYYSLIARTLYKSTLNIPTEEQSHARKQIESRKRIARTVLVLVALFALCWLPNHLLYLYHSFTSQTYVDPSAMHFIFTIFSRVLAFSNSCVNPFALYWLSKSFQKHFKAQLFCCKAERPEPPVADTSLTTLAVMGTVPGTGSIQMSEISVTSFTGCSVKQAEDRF
Method: (§1) Non-small cell lung cancer cell line NCI-H1299 (ATCC, Manassas, VA, USA) was stably transfected with BB1R, BB2R, and BRS-3. The transfected cells were grown in RPMI-1640 containing 10% fetal bovine serum (FBS) with 0.3 mg/ml geneticin (Invitrogen, Grand Island, NY, USA). The transfected cells, which contained approximately 100,000 receptors/cell, were weekly split using trypsin/EDTA ([13]). In addition, lung cancer cell lines NCI-H727, H1299, and H1975 were purchased from ATCC and cultured in RPMI-1640, which contained 10% FBS. The cell types were derived from different human biopsy specimens. These studies were approved by the NIDDK biospecimens and biosafety committees.
(§2) The ability of AM-37, ST-36, AM-13, and AM-14 to inhibit specific ^125I-BA1 binding to NSCLC cells transfected stably with BB1R, BB2R, and BRS-3 was investigated. NSCLC cells were placed in 24 well plates. When confluent, the cells were washed three times with PBS. The cells were incubated with binding buffer (PBS containing 0.25% bovine serum albumin and 0.025% bacitracin, Sigma-Aldrich, St. Louis, MO, USA). Various concentrations of AM-37, ST-36, AM-13, or AM-14 were added to the cells for 10 min, followed by 100,000 cpm of ^125I-BA1 (0.16 nM) and incubated at 37°C for 30 min when equilibrium of binding was reached. The cells were rinsed three times with binding buffer for 2 min at 4°C. The cells that contained bound peptide dissolved in 0.2 N NaOH and counted in a Wallac 1470 γ-counter. The Ki was calculated as described ([15]).

[2] = test system: ERK; assay: ERK tyrosine phosphorylation by western blot, NCI-H1299 cells transfected with BB2R; format: cell-based, human; settings: 10 µM pretreatment, then 100 nM BA1
Method: (§3) The tyrosine phosphorylation of the EGFR and ERK was investigated by western blot. NSCLC cells transfected with BB1R, BB2R, and BRS-3 were placed in 10 cm dishes. When the cells were confluent, they were placed in SIT medium (RPMI-1640 containing 3 × 10^−8 M sodium selenite, 5 µg/ml bovine insulin, and 10 µg/ml apo-transferrin; Sigma-Aldrich, St. Louis, MO, USA) for 3 h. […] Cell extracts were made as described previously ([16]), and 600 µg of protein extract was immunoprecipitated with 4 µg anti-phosphotyrosine antibody (Becton Dickenson, USA). The immunoprecipitates were fractionated using a 4–20% polyacrylamide gel (Novex, San Diego, CA, USA). Proteins were transferred to a nitrocellulose membrane and incubated with 2 µg anti-EGFR or anti-ERK antibody (Cell Signaling Technologies, Danvers, MA, USA). After washing the blot, it was incubated with enhanced chemiluminescence detection reagent (Thermo Scientific) for 5 min and exposed to Biomax XAR film (Carestream, Rochester, NY, USA). The band intensity was determined using a Kodak image station 440 densitometer. Alternatively, 20 µg of protein extract was loaded onto polyacrylamide gels and after transfer to nitrocellulose, the blot was probed with anti-PY^1,068-EGFR, anti-EGFR, anti-PY^204ERK, or anti-ERK (Cell Signaling Technologies, Danvers, MA, USA).

[3] = target: T2, BB1R (Homo sapiens, UniProt P28336); assay: Inhibition of specific 125I-BA1 binding to BB1R-transfected NCI-H1299 cells
T2 construct: expressed in transfected cells; host or cells: NCI-H1299
T2 sequence (P28336 whole entry): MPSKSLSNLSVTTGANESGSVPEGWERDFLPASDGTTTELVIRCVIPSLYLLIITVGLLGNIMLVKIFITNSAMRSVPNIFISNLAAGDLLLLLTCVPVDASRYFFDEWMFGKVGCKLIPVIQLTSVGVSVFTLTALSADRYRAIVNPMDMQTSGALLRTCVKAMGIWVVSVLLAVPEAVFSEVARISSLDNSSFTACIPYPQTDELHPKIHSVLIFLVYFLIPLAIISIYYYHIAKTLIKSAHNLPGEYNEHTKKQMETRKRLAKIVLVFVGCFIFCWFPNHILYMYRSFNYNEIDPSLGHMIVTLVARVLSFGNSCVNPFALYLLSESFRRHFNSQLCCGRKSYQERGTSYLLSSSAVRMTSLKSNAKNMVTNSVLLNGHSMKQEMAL
Method: as §1, §2

[4] = target: T1, BRS-3; assay: Cytosolic Ca2+ (Fura-2AM) in NCI-H1299 cells transfected with BRS-3; format: cell-based; settings: for Increase in cytosolic Ca2+, BRS-3: 30 µM small molecule followed by 10 nM BA1
Method: as §1
(§4) The ability of AM-37, ST-36, AM-13, and AM-14 to function as BBR antagonists was investigated. NSCLC cells transfected with BB1R, BB2R, and BRS-3 were harvested and loaded with Fura-2AM (Calbiochem, La Jolla, CA, USA) as described previously ([16]). The excitation ratio was determined at 340 and 380 nm with an emission wavelength of 510 nm.

[5] = test system: NCI-H1299 cells; assay: MTT proliferation assay, NCI-H1299; format: cell-based, human; settings: for IC50: Homo sapiens, NCI-H1299, 48 h, MTT, 2 days, SIT medium
Method: The proliferation of NSCLC cells was investigated using the 3-(4,5-demethylthiazol-2-yl)-[…]-2H-tetrazolium bromide (MTT) assay as described previously ([16]). NCI-H727, H1299, and H1975 cells were placed in SIT medium and varying concentration of AM-37, ST-36, AM-13, or AM-14 added. After 2 days, 0.1% MTT solution (15 µl) was added. After 4 h, DMSO (150 µl) was added and the absorbance at 570 nm was determined.

[6] = test system: EGFR; assay: EGFR tyrosine phosphorylation by western blot, NCI-H1299 cells transfected with BB2R; format: cell-based, human; settings: 10 µM pretreatment, then 100 nM BA1
Method: as §3

[7] = target: T3, NTR (Homo sapiens, UniProt P30989); assay: Neurotensin-induced cytosolic Ca2+ in NSCLC cells (specificity); format: cell-based; settings: 10 nM neurotensin
T3 construct: endogenous in cells; host or cells: NCI-H1299 (transfected with bombesin receptors)
T3 sequence (P30989 whole entry): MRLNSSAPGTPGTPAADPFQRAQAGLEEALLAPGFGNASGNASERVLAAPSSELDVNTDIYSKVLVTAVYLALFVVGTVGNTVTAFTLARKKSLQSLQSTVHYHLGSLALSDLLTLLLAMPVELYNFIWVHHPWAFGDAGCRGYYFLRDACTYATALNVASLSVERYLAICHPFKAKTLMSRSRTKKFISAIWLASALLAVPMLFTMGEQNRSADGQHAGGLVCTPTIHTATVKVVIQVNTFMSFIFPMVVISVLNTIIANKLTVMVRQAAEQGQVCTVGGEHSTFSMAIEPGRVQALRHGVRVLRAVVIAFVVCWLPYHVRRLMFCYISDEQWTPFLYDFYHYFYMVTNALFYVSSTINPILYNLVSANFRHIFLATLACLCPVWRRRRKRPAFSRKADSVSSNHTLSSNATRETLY

[8] = target: T4, BB2R (Homo sapiens, UniProt P30550); assay: Inhibition of specific 125I-BA1 binding to BB2R-transfected NCI-H1299 cells; settings: for Ki: inhibition of specific 125I-BA1 binding, BB2R-transfected NCI-H1299 cells
T4 construct: expressed in transfected cells; host or cells: NCI-H1299
T4 sequence (P30550 whole entry): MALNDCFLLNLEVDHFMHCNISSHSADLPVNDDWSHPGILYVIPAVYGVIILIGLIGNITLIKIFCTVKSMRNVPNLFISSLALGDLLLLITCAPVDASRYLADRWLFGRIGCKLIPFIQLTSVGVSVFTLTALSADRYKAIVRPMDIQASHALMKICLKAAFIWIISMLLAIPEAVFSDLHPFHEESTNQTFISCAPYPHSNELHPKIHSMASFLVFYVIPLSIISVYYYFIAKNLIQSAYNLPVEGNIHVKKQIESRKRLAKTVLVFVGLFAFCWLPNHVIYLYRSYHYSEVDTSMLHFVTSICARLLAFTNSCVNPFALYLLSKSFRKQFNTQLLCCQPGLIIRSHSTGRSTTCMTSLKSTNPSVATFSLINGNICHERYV
Text: Non-small cell lung cancer cell line NCI-H1299 (ATCC, Manassas, VA, USA) was stably transfected with BB1R, BB2R, and BRS-3. […] The transfected cells, which contained approximately 100,000 receptors/cell, were weekly split using trypsin/EDTA ([13]). […] The cell types were derived from different human biopsy specimens. These studies were approved by the NIDDK biospecimens and biosafety committees.
NSCLC cells were placed in 24 well plates. When confluent, the cells were washed three times with PBS. […] The cells were rinsed three times with binding buffer for 2 min at 4°C. […] The Ki was calculated as described ([15]).

[9] = target: T4, BB2R; assay: Cytosolic Ca2+ (Fura-2AM) in NCI-H1299 cells transfected with BB2R; format: cell-based; settings: for Increase in cytosolic Ca2+, BB2R: 30 µM small molecule followed by 10 nM BA1; for Effect on the increase in cytosolic Ca2+ caused by BA1 / Effect on basal cytosolic Ca2+: 30 µM, BB2R-transfected cells; for Effect on the increase in cytosolic Ca2+ caused by BA1: 10 nM BA1
Method: as §1, §4

[10] = target: T2, BB1R; assay: Cytosolic Ca2+ (Fura-2AM) in NCI-H1299 cells transfected with BB1R; format: cell-based; settings: for Increase in cytosolic Ca2+, BB1R: 30 µM small molecule followed by 10 nM BA1; for Effect on the increase in cytosolic Ca2+ caused by BA1 / Effect on basal cytosolic Ca2+: 30 µM, BB1R-transfected cells; for Effect on the increase in cytosolic Ca2+ caused by BA1: 10 nM BA1
Method: as §1, §4

[11] = test system: NSCLC cells; assay: Ionomycin-induced cytosolic Ca2+ in NSCLC cells (specificity); format: cell-based, human; settings: 5 µg/ml ionomycin
Method: as §4

Ki [1]	Ki [3]	Increase in cytosolic Ca2+, BRS-3 [4]	IC50 [5]	Effect on the ability of NT to increase cytosolic Ca2+ [7]	Ki [8]	Increase in cytosolic Ca2+, BB2R [9]	Effect on the increase in cytosolic Ca2+ caused by BA1 [9]	Effect on basal cytosolic Ca2+ [9]	Increase in cytosolic Ca2+, BB1R [10]	Effect on the increase in cytosolic Ca2+ caused by BA1 [10]	Effect on basal cytosolic Ca2+ [10]	Structure (SMILES)	Effect of pretreatment on BA1-induced ERK tyrosine phosphorylation [2]	Effect of pretreatment on BA1-induced EGFR tyrosine phosphorylation [6]	other results
10.8 ± 0.9 µM	7.9 ± 0.9 µM	0^a nM	22 µM	no effect	6.9 ± 0.3 µM	0^a nM	blocked	no effect	0^a nM			COc1ccc(NC(=O)N[C@@H](Cc2c[nH]c3ccccc23)C(=O)NCC2(c3cccnc3)CCCCC2)cc1 [ST-36]	decreased significantly	addition of BA1 had little effect	IC50 [1]: 10.8 µM; Effect on the increase in cytosolic Ca2+ caused by BA1 ([4]; 30 µM, 10 nM BA1, BRS-3-transfected cells): blocked; Effect on basal cytosolic Ca2+ ([4]; 30 µM, BRS-3-transfected cells): no effect; IC50 [8]: 6.9 µM
5.5 ± 0.6 µM	3.6 ± 0.5 µM	0^a nM	16 µM	no effect	1.4 ± 0.2 µM	0^a nM			1 ± 0.6^a nM	blocked	no effect	COc1ccc(NC(=O)N[C@H](Cc2c[nH]c3ccccc23)C(=O)NCC2(c3cccnc3)CCCCC2)cc1 [AM-37, (R)-3-(1H-indol-3-yl)-2-[3-(4-methoxyphenyl)ureido]-N-[[1-(3-pyridinyl)cyclohexyl]methyl]propanamide]	decreased significantly	addition of BA1 had little effect	Effect on NCI-H1299 proliferation ([5]; 3 µM): little effect; Effect on NCI-H1299 proliferation ([5]; 30 µM): strongly inhibited
> 100 µM	> 100 µM	3 + 0.4^a nM	> 50 µM		45 ± 8 µM	6 + 0.5^a nM	partially blocked	no effect		partially blocked	no effect	COc1ccc(NC(=O)N[C@@H](Cc2c[nH]c3ccccc23)C(=O)NCC2(c3ccc(F)cc3)CCCCC2)cc1 [AM-14]	little effect	little effect	Effect on the ability of ION to increase Ca2+ [11]: no effect
